In patent US10233174B2 (THERAVANCE BIOPHARMA R&D IP, LLC, priority 2017, dated 2019):

Molecular target: β-glucuronidase (Escherichia coli, UniProt P05804)
Assay: Assay 11: Release of H2S and Tofacitinib (incubation with β-glucuronidase and monobromobimane)
Format: in vitro ADME
Details: 50 μM compound 1, β-glucuronidase 100 units/mL, MBB 100 μM, pH 7.4, 37° C.
Experimental: The method used to detect H2S was previously described in Tan et al., Nature Scientific Reports, 2017, 7:46278, DOI: 10.1038/srep46278.
Compound 1 (50 μM) was incubated with β-glucuronidase (100 units/mL) and monobromobimane (MBB, 100 μM) in potassium phosphate buffer pH 7.4 (100 mM) for 60 min at 37° C. In addition, incubations were carried out with and without a) β-glucuronidase and b) MBB as negative control. Incubation of SN38-Glucuronide was also carried out with β-glucuronidase as a positive control for β-glucuronidase activity. The reactions were terminated at 60 min by the addition of three volumes of ice-cold acetonitrile to the incubation mixture. The incubation samples were centrifuged (4° C., 2200×g, 10 minutes) and the supernatants were transferred to amber HLPC vials. All samples were stored at 4° C. until the analysis. The samples were analyzed using a Thermo Orbitrap LC-MS/MS system.
H2S was trapped using monobromobimane (MBB) to form sulfide dibimane (SDB).

Chain of β-glucuronidase (P05804 whole entry): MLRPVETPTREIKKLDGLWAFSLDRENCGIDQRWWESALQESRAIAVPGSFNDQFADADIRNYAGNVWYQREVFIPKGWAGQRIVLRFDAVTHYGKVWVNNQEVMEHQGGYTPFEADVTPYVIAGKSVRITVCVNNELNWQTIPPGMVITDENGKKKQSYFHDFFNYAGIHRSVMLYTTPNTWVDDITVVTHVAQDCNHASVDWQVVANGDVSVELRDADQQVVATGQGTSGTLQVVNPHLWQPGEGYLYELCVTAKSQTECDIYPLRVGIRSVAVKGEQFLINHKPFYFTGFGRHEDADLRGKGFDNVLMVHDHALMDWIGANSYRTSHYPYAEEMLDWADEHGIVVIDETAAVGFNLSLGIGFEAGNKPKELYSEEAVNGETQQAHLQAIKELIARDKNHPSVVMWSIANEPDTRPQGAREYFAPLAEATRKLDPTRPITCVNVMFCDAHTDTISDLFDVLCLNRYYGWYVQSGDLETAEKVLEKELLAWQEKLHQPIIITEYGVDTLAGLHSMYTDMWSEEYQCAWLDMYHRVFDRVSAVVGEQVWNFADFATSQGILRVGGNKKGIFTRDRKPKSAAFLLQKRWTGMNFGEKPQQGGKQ

Structure (SMILES): C[C@@H]1CCN(C(=O)CC#N)C[C@@H]1N(C)c1ncnc2c1ccn2C(=O)N(C)CCN(C)C(=S)OCc1ccc(O[C@@H]2O[C@H](C(=O)O)[C@@H](O)[C@H](O)[C@H]2O)c([N+](=O)[O-])c1 [Compound 1, (2S,3S,4S,5R,6S)-6-(4-((((2-(4-(((3R,4R)-1-(2-cyanoacetyl)-4-methylpiperidin-3-yl)(methyl)amino)-N-methyl-7H-pyrrolo[2,3-d]pyrimidine-7-carboxamido)ethyl)(methyl)carbamothioyl)oxy)methyl)-2-nitrophenoxy)-3,4,5-trihydroxytetrahydro-2H-pyran-2-carboxylic acid]
- % (MS Peak Area) (60 min) of compound 1 (Parent) remaining: 0%
